# Target: T1, MyD88^TIR (Homo sapiens, UniProt Q99836)
# T1 construct: MyD88 (residues 148–296); 6xHis; made in house; host or cells: E. coli BL21 (DE3)
# Test: T‐Surf phage library (P8 and P3) selection against MyD88^TIR, four rounds, NGS read counts
# Assay type: binding
# Settings: for P8_MyD88 Rank (after) / P8_MyD88 Rank (before): P8 library; for Population: 4th round of selection against MyD88 TIR, share of NGS reads; for P3_MyD88 Rank (after) / P3_MyD88 Rank (before): P3 library
# Description: T‐Surf libraries were screened against the immobilized TIR domains of two major human TLR adaptor proteins, MAL^TIR and MyD88^TIR, allowing cross‐species selection of TIR‐binding motifs with 190 946 TIR‐derived peptides in a single binding assay (Scheme 1). Enriched phage pools from the fourth round of selection were analyzed using NGS after barcoding the peptide‐coding regions of the phage pools.
# Phage display screening was performed by coating two wells of a 96‐well plate (Maxisorp, Thermo Fisher Scientific) with 100 µL of 5 µg mL^−1 TIR domains overnight; then, the coated wells were blocked with 200 µL of blocking buffer (0.2% BSA in PBS) and set aside for 1 h at 4 °C with gentle shaking. Next, 100 µL of the phage library was added to the wells and incubated for 1 h at room temperature (RT; 20 – 22 °C) with gentle shaking. The plate was washed four times with PBS containing 0.5% Tween‐20; the bound phages were eluted by adding 100 µL of 100 mM HCl to each well. The elute was neutralized with 10 µL of 1.0 M Tris‐HCl (pH 11.0). E. coli TG1 cells were grown to the log phase (A600 = ≈0.6), and 1 mL of the culture was incubated with 100 µL of the eluted phages for 30 min at 37 °C, with shaking at 200 rpm. Next, 1 µL of M13KO7 helper phages was added, followed by incubation for 45 min at 37 °C, with shaking. Subsequently, the cells were transferred to 25 mL of 2× yeast extract tryptone/carbenicillin/kanamycin medium and incubated overnight at 37 °C with shaking at 200 rpm. The amplified phages were precipitated with 20% PEG‐8000/2.5 M NaCl to be used for the next round of selection.
# The naïve T‐Surf libraries in P8 and P3 and the enriched phage pools after four rounds were barcoded for NGS as previously described.^[ [59] ^] Briefly, 5 µL of the phage pool was used as a template for 20 cycles of a 50 µL PCR reaction using […] each of forward and reverse barcoded primers and PrimeSTAR Max DNA Polymerase. The PCR products were purified using Expin Gel SV (GeneAll). The NGS samples were quantified using qPCR, following the qPCR Quantification Protocol Guide (KAPA Library Quantification kits for Illumina Sequencing Platform), and qualified using the TapeStation High Sensitivity D1000 ScreenTape (Agilent Technologies). The indexed libraries were further sequenced by Macrogen (Seoul, Republic of Korea) using the NovaSeq platform (Illumina) with 100 bp paired‐end reads. The reads were demultiplexed by barcodes and filtered for an average Phred quality score of at least 30, followed by trimming the flanking consensus sequences using Cutadapt (version 2.3). Peptide sequence populations were analyzed according to the read counts.
# [1] = selection against MyD88, rank after grouping
# [2] = selection against MyD88, rank before grouping
# [3] = P8_MyD88: rank by NGS read count after grouping
# [4] = P8_MyD88: rank by NGS read count before grouping
# [5] = P8_MyD88: rank by count after grouping
# [6] = P8_MyD88: rank by count before grouping
# [7] = 4R selection against MyD88, rank after grouping
# [8] = 4R selection against MyD88, rank before grouping
# [9] = selection against MyD88, rank by count after grouping
# [10] = selection against MyD88, rank by count before grouping
# [11] = P3_MyD88 pool: P3 T-Surf phage library
# [12] = P3_MyD88: rank by count after grouping
# [13] = P3_MyD88: rank by count before grouping
# [14] = selection against MyD88 TIR, rank by count after grouping
# [15] = selection against MyD88 TIR, rank by count before grouping
# T1 sequence (Q99836 148-296): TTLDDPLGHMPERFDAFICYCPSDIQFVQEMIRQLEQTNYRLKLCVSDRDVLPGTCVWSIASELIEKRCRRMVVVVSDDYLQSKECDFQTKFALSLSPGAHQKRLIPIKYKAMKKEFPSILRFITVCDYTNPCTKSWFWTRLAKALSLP
sequence,measurement,setting,value
DEAWFLTKLRISLEHL,P8_MyD88 Rank (after),[1],576
same,P8_MyD88 Rank (before),[2],2581
DFLKWDNEAIMIKKIA,Rank (after),[3],993
same,Rank (before),[4],2369
DFLLTILEAMKTKNQL,Rank (after),[5],148
same,Rank (before),[6],159
same,Population,P8_MyD88 pool: P8 T-Surf phage library,0.00925%
DFLNWFIAPNSTVIEN,Rank (after),[5],457
same,Rank (before),[6],2364
DFLNWFYERLVSLFL,P8_MyD88 Rank (after),[7],622
same,P8_MyD88 Rank (before),[8],2352
DFLSHLIKRLAVCTS,Rank (after),[3],896
same,Rank (before),[4],2347
DFRSHLIETFGRMFIN,Rank (after),[5],465
same,Rank (before),[6],2370
DFSHFWLFEAGGDAD,Rank (after),[3],946
same,Rank (before),[4],2377
DFSHFWLFEARGDA,Rank (after),[5],387
same,Rank (before),[6],2381
DGGWDYLLPNVEGPAC,P8_MyD88 Rank (after),[9],760
same,P8_MyD88 Rank (before),[10],2560
DHHLALPRGKASKPEHLG,P3_MyD88 Rank (after),[1],525
same,P3_MyD88 Rank (before),[2],1994
DHHLDLLRGIAIKLEILG,P3_MyD88 Rank (after),[9],722
same,P3_MyD88 Rank (before),[10],1998
DHHLDLPRGKAIKE,P3_MyD88 Rank (after),[1],550
same,P3_MyD88 Rank (before),[2],2017
DHHLDLPRGKAIKLEILG,Population,[11],0.00437%
DHHLDLPRGKAIKPAILR,Rank (after),[12],162
same,Rank (before),[13],2019
DHHLDLPRGKAIKPEFW,P3_MyD88 Rank (after),[14],241
same,P3_MyD88 Rank (before),[15],951
DHHLDLPRGKAIKPEIL,Rank (after),[12],108
same,Rank (before),[13],953
DHHLDLPRGKAIKPEILG,P8_MyD88 Rank (after),[9],757
same,P8_MyD88 Rank (before),[10],3049
DHHLDLPRGKAIKPEILGH,P3_MyD88 Rank (after),[1],483
same,P3_MyD88 Rank (before),[2],2026
DHHLDLPRGKAIKPEILS,Population,[11],0.0032%
DHHLDLPRGKAIKPVILG,Population,[11],0.00291%
DHHLDLPRGKAIKQEILG,Population,[11],0.00495%
DHHLDLPRGKAIKREILG,Population,[11],0.00437%
DHHLDLPRGKAINRKFW,Rank (after),[12],102
same,Rank (before),[13],355
DHHLDLPRGKAIQPDILG,P3_MyD88 Rank (after),[1],554
same,P3_MyD88 Rank (before),[2],2014
DHHLDLPRGKALKPEMLG,P3_MyD88 Rank (after),[14],200
same,P3_MyD88 Rank (before),[15],2046
DHHLDLPRGKALTPEILG,P3_MyD88 Rank (after),[7],657
same,P3_MyD88 Rank (before),[8],2012
DHHLDLPRGKANKPEILD,P3_MyD88 Rank (after),[1],555
same,P3_MyD88 Rank (before),[2],2035
DHHLDLPRGKEIKPELLG,P3_MyD88 Rank (after),[14],245
same,P3_MyD88 Rank (before),[15],2038
DHHLDLPRGKPIKREILG,P3_MyD88 Rank (after),[14],244
same,P3_MyD88 Rank (before),[15],2040
DHHLDLPRGKRLNRKFW,Rank (after),[12],153
same,Rank (before),[13],944
DHHLDLPRGKSFKPEILG,Rank (after),[12],451
same,Rank (before),[13],1996

# From PMC11714206, “Massively Parallel Screening of Toll/Interleukin‐1 Receptor (TIR)‐Derived Peptides Reveals Multiple Toll‐Like Receptors (TLRs)‐Targeting Immunomodulatory Peptides” (Advanced Science, 2024)
